Measurements published in US6444850B1, “Fungicidial compounds having a fluorovinyloxphyenyl moiety and process for the preparation thereof” (priority 1997, dated 2002).

Experiments:
[1] = test system: Pyricularia oryzae Carvara KA301; type: in vivo; settings: for C. V. (%) RCB: 50 ppm, control value, rice blast; for C. V. (%) Fungicidal Activities against RCB at 10 ppm / C. V. (%) Fungicidal Activities against RCB at 10 ppm (TABLE 6): sprayed on Nakdong rice plant, control value from lesion area
[2] = test system: Botrytis cinerae; test: Fungicidal activity against cucumber gray mold rot (CGM) disease; type: in vivo; settings: 50 ppm, control value
[3] = test system: Phytophthora infestans; type: in vivo; settings: 50 ppm; control value, tomato late blight
[4] = test system: Puccinia recondita; test: Fungicidal activity against wheat leaf rust (WLR) disease; type: in vivo; settings: for C. V. (%), Fungicidal Activities against WLB at 10 ppm: Table 8 (Test Example 5); for C. V. (%) WLR: 50 ppm, control value, wheat leaf rust
[5] = test system: Erysiphae graminis; test: Fungicidal activity against barley powdery mildew (BPM) disease; type: in vivo; settings: for C. V. (%), Fungicidal activities against TLB at 10 ppm: Table 9 (Test Example 6); for C. V. (%) BPM: 50 ppm, control value, barley powdery mildew
[6] = test system: Rhizoctonia solani AG-1; test: Fungicidal activity against rice sheath blight (RSB) disease; settings: 50 ppm, control value

COC=C(C(=O)OC)c1ccccc1COc1cccc(OC(F)=C(c2cccc(OC)c2)C(F)(F)F)c1 [Compound 71]
C. V. (%) RCB [1]: 90%
C. V. (%) CGM [2]: 41%
C. V. (%) TLB [3]: 62%
C. V. (%), Fungicidal Activities against WLB at 10 ppm [4]: 95%
C. V. (%) WLR [4]: 100%
C. V. (%), Fungicidal activities against TLB at 10 ppm [5]: 100%
C. V. (%) BPM [5]: 100%
C. V. (%) RSB [6]: 40%

COC=C(C(=O)OC)c1ccccc1COc1cccc(OC(F)=Cc2ccc(F)cc2)c1 [Compound 36]
C. V. (%) Fungicidal Activities against RCB at 10 ppm [1]: 94%
C. V. (%) Fungicidal Activities against RCB at 10 ppm (TABLE 6) [1]: 94%
C. V. (%) RCB [1]: 100%
C. V. (%) CGM [2]: 0%
C. V. (%) TLB [3]: 66%
C. V. (%), Fungicidal Activities against WLB at 10 ppm [4]: 100%
C. V. (%) WLR [4]: 100%
C. V. (%), Fungicidal activities against TLB at 10 ppm [5]: 100%
C. V. (%) BPM [5]: 99%
C. V. (%) RSB [6]: 95%

CNC(=O)C(=COC)c1ccccc1COc1cccc(OC(F)=C(c2cccc(C)c2)C(F)(F)F)c1 [Compound 50]
C. V. (%) RCB [1]: 0%
C. V. (%) CGM [2]: 5%
C. V. (%) TLB [3]: 33%
C. V. (%) WLR [4]: 0%
C. V. (%) BPM [5]: 0%
C. V. (%) RSB [6]: 25%

CNC(=O)C(=NOC)c1ccccc1COc1cccc(OC(F)=C(c2cccc(Cl)c2)C(F)(F)F)c1 [Compound 87]
C. V. (%) Fungicidal Activities against RCB at 10 ppm [1]: 100%
C. V. (%) Fungicidal Activities against RCB at 10 ppm (TABLE 6) [1]: 100%
C. V. (%) RCB [1]: 100%
C. V. (%) CGM [2]: 0%
C. V. (%) TLB [3]: 0%
C. V. (%), Fungicidal Activities against WLB at 10 ppm [4]: 100%
C. V. (%) WLR [4]: 100%
C. V. (%), Fungicidal activities against TLB at 10 ppm [5]: 100%
C. V. (%) BPM [5]: 100%
C. V. (%) RSB [6]: 0%

CON=C(C(=O)OC)c1ccccc1COc1cccc(OC(F)=C(c2cc(Cl)cc(Cl)c2)C(F)(F)F)c1 [Compound 103]
C. V. (%) RCB [1]: 0%
C. V. (%) CGM [2]: 0%
C. V. (%) TLB [3]: 3%
C. V. (%), Fungicidal Activities against WLB at 10 ppm [4]: 96%
C. V. (%) WLR [4]: 100%
C. V. (%), Fungicidal activities against TLB at 10 ppm [5]: 100%
C. V. (%) BPM [5]: 100%
C. V. (%) RSB [6]: 60%

COC=C(C(=O)OC)c1ccccc1COc1cccc(OC(F)=Cc2ccc(C)cc2)c1 [Compound 10]
C. V. (%) Fungicidal Activities against RCB at 10 ppm [1]: 95%
C. V. (%) Fungicidal Activities against RCB at 10 ppm (TABLE 6) [1]: 95%
C. V. (%) RCB [1]: 97%
C. V. (%) CGM [2]: 0%
C. V. (%) TLB [3]: 50%
C. V. (%), Fungicidal Activities against WLB at 10 ppm [4]: 96%
C. V. (%) WLR [4]: 100%
C. V. (%), Fungicidal activities against TLB at 10 ppm [5]: 97%
C. V. (%) BPM [5]: 95%
C. V. (%) RSB [6]: 92%

CNC(=O)C(=COC)c1ccccc1COc1cccc(OC(F)=Cc2cccc(F)c2)c1 [Compound 35]
C. V. (%) RCB [1]: 15%
C. V. (%) CGM [2]: 35%
C. V. (%) TLB [3]: 35%
C. V. (%) WLR [4]: 40%
C. V. (%) BPM [5]: 58%
C. V. (%) RSB [6]: 30%

CON=C(C(=O)OC)c1ccccc1COc1cccc(OC(F)=C(c2cccc(Cl)c2)C(F)(F)F)c1 [Compound 86]
C. V. (%) RCB [1]: 90%
C. V. (%) CGM [2]: 27%
C. V. (%) TLB [3]: 22%
C. V. (%), Fungicidal Activities against WLB at 10 ppm [4]: 96%
C. V. (%) WLR [4]: 100%
C. V. (%), Fungicidal activities against TLB at 10 ppm [5]: 95%
C. V. (%) BPM [5]: 100%
C. V. (%) RSB [6]: 90%

CNC(=O)C(=COC)c1ccccc1COc1cccc(OC(F)=Cc2cccc(OC)c2)c1 [Compound 26]
C. V. (%) RCB [1]: 20%
C. V. (%) CGM [2]: 0%
C. V. (%) TLB [3]: 55%
C. V. (%) WLR [4]: 70%
C. V. (%) BPM [5]: 88%
C. V. (%) RSB [6]: 35%

COC(=O)C(=CSC)c1ccccc1COc1cccc(OC(F)=Cc2ccc(Cl)cc2)c1 [Compound 40]
C. V. (%) RCB [1]: 73%
C. V. (%) CGM [2]: 9%
C. V. (%) TLB [3]: 33%
C. V. (%) WLR [4]: 83%
C. V. (%) BPM [5]: 93%
C. V. (%) RSB [6]: 70%

CON=C(C(=O)OC)c1ccccc1COc1cccc(OC(F)=C(c2ccc(OC)cc2)C(F)(F)F)c1 [Compound 76]
C. V. (%) RCB [1]: 63%
C. V. (%) CGM [2]: 0%
C. V. (%) TLB [3]: 44%
C. V. (%), Fungicidal Activities against WLB at 10 ppm [4]: 99%
C. V. (%) WLR [4]: 96%
C. V. (%), Fungicidal activities against TLB at 10 ppm [5]: 96%
C. V. (%) BPM [5]: 99%
C. V. (%) RSB [6]: 90%

CCc1ccc(C(=C(F)Oc2cccc(OCc3ccccc3C(=NOC)C(=O)NC)c2)C(F)(F)F)cc1 [Compound 61]
C. V. (%) Fungicidal Activities against RCB at 10 ppm [1]: 96%
C. V. (%) Fungicidal Activities against RCB at 10 ppm (TABLE 6) [1]: 96%
C. V. (%) RCB [1]: 100%
C. V. (%) CGM [2]: 5%
C. V. (%) TLB [3]: 64%
C. V. (%), Fungicidal Activities against WLB at 10 ppm [4]: 100%
C. V. (%) WLR [4]: 100%
C. V. (%), Fungicidal activities against TLB at 10 ppm [5]: 100%
C. V. (%) BPM [5]: 100%
C. V. (%) RSB [6]: 50%

CNC(=O)C(=NOC)c1ccccc1COc1cccc(OC(F)=C(c2ccc(OC)cc2)C(F)(F)F)c1 [Compound 77]
C. V. (%) Fungicidal Activities against RCB at 10 ppm [1]: 96%
C. V. (%) Fungicidal Activities against RCB at 10 ppm (TABLE 6) [1]: 96%
C. V. (%) RCB [1]: 99%
C. V. (%) CGM [2]: 11%
C. V. (%) TLB [3]: 82%
C. V. (%), Fungicidal Activities against WLB at 10 ppm [4]: 100%
C. V. (%) WLR [4]: 100%
C. V. (%), Fungicidal activities against TLB at 10 ppm [5]: 100%
C. V. (%) BPM [5]: 100%
C. V. (%) RSB [6]: 60%

COC=C(C(=O)OC)c1ccccc1COc1cccc(OC(F)=C(c2ccc(C)cc2)C(F)(F)F)c1 [Compound 53]
C. V. (%) RCB [1]: 100%
C. V. (%) CGM [2]: 55%
C. V. (%) TLB [3]: 0%
C. V. (%), Fungicidal Activities against WLB at 10 ppm [4]: 99%
C. V. (%) WLR [4]: 100%
C. V. (%), Fungicidal activities against TLB at 10 ppm [5]: 96%
C. V. (%) BPM [5]: 100%
C. V. (%) RSB [6]: 50%

COC(=O)C(=CSC)c1ccccc1COc1cccc(OC(F)=Cc2ccccc2)c1 [Compound 4]
C. V. (%) RCB [1]: 90%
C. V. (%) CGM [2]: 33%
C. V. (%) TLB [3]: 86%
C. V. (%) WLR [4]: 85%
C. V. (%) BPM [5]: 91%
C. V. (%) RSB [6]: 75%

CNC(=O)C(=COC)c1ccccc1COc1cccc(OC(F)=C(c2ccc(F)cc2)C(F)(F)F)c1 [Compound 97]
C. V. (%) RCB [1]: 0%
C. V. (%) CGM [2]: 11%
C. V. (%) TLB [3]: 22%
C. V. (%) WLR [4]: 83%
C. V. (%) BPM [5]: 33%
C. V. (%) RSB [6]: 10%

COC=C(C(=O)OC)c1ccccc1COc1cccc(OC(F)=Cc2cc(C)cc(C)c2)c1 [Compound 17]
C. V. (%) Fungicidal Activities against RCB at 10 ppm [1]: 95%
C. V. (%) Fungicidal Activities against RCB at 10 ppm (TABLE 6) [1]: 95%
C. V. (%) RCB [1]: 90%
C. V. (%) CGM [2]: 50%
C. V. (%) TLB [3]: 81%
C. V. (%), Fungicidal Activities against WLB at 10 ppm [4]: 99%
C. V. (%) WLR [4]: 100%
C. V. (%) BPM [5]: 99%
C. V. (%) RSB [6]: 60%

CNC(=O)C(=COC)c1ccccc1COc1cccc(OC(F)=Cc2cc(C)cc(C)c2)c1 [Compound 18]
C. V. (%) RCB [1]: 26%
C. V. (%) CGM [2]: 21%
C. V. (%) TLB [3]: 6%
C. V. (%) WLR [4]: 0%
C. V. (%) BPM [5]: 0%
C. V. (%) RSB [6]: 5%

CNC(=O)C(=COC)c1ccccc1COc1cccc(OC(F)=C(c2ccc(Cl)cc2)C(F)(F)F)c1 [Compound 89]
C. V. (%) RCB [1]: 0%
C. V. (%) CGM [2]: 22%
C. V. (%) TLB [3]: 33%
C. V. (%) WLR [4]: 33%
C. V. (%) BPM [5]: 0%
C. V. (%) RSB [6]: 25%

CCCCc1ccc(C(=C(F)Oc2cccc(OCc3ccccc3C(=COC)C(=O)OC)c2)C(F)(F)F)cc1 [Compound 62]
C. V. (%) RCB [1]: 0%
C. V. (%) CGM [2]: 28%
C. V. (%) TLB [3]: 3%
C. V. (%) WLR [4]: 93%
C. V. (%) BPM [5]: 98%
C. V. (%) RSB [6]: 35%
